# Results: patent US7232912B2, “Indazole compounds, pharmaceutical compositions, and methods for mediating or inhibiting cell proliferation” (Agouron Pharmaceuticals, Inc., priority 2000, dated 2007)
# Like-named read-outs stand apart in the source and are kept apart here.
# How the values were obtained:
# CDK4/cyclin D3 = CDK4/cyclin D3 (Homo sapiens, UniProt P11802); assay: Inhibition of CDK4/Cyclin D Retinoblastoma Kinase Activity; format: biochemical; conditions: for Ki: apparent Ki; for inhibition at 10 µM: read-out: CDK4/D % inhibition at 10 μM
# Sequence of CDK4/cyclin D3 (P11802 2-303 limits assumed): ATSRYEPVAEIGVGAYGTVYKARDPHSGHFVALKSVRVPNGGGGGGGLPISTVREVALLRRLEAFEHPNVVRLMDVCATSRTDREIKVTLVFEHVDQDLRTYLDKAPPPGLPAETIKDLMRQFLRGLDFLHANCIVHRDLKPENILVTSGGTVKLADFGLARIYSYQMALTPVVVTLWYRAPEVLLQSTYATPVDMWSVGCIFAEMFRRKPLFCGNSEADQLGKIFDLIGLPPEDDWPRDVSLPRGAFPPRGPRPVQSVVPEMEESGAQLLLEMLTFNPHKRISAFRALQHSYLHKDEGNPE
# Sequence of CDK4/cyclin D3 (P30281 1-264 limits assumed, further chain): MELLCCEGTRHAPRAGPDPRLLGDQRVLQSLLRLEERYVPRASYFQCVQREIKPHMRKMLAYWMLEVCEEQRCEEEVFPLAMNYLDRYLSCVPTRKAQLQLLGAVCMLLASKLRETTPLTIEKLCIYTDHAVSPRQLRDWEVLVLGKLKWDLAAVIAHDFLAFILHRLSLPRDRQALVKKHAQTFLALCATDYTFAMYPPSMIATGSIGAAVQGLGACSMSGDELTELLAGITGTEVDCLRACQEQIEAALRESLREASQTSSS
# Description: (§1) Cyclin-dependent kinase activity was measured by quantifying the enzyme-catalyzed, time-dependent incorporation of radioactive phosphate from [^32P]ATP or [^33P]ATP into a protein substrate. Unless noted otherwise, assays were performed in 96-well plates in a total volume of 50 μL, in the presence of 10 mM HEPES (N-[2-hydroxyethyl]piperazine-N′-[2-ethanesulfonic acid]) (pH 7.4), 10 mM MgCl2, 25 μM adenosine triphosphate (ATP), 1 mg/mL ovalbumin, 5 μg/mL leupeptin, 1 mM dithiothreitol, 10 mM beta-glycerophosphate, 0.1 mM sodium vanadate, 1 mM sodium fluoride, 2.5 mM ethylene glycol-bis(β-aminoethyl ethKer)-N,N,N′N′-tetraacetic acid (EGTA), 2% (v/v) dimethylsulfoxide, and 0.03–0.4 μCi [^32/33P]ATP per reaction. Reactions were initiated with appropriate enzyme, incubated at 30° C., and terminated after 20 minutes by the addition of ethylenediaminetetraacetic acid (EDTA) to 250 mM. The phosphorylated substrate was then captured on a nitrocellulose or phosphocellulose membrane using a 96-well filtration manifold, and unincorporated radioactivity was removed by repeated washing with 0.85% phosphoric acid. Radioactivity was quantified by exposing the dried membranes to a phosphorimager.
# (§2) Apparent Ki values were measured by assaying enzyme activity in the presence of different inhibitor compound concentrations and subtracting the background radioactivity measured in the absence of enzyme. Inhibition data were fit to an equation for competitive inhibition using Kaleidagraph (Synergy Software), or were fit to an equation for competitive tight-binding inhibition using the software KineTic (BioKin, Ltd.).
# Inhibition of CDK4/Cyclin D Retinoblastoma Kinase Activity
# A complex of human CDK4 and cyclin D3, or a complex of human CDK4 and genetically truncated (1–264) cyclin D3, was purified using traditional biochemical chromatographic techniques from insect cells that had been co-infected with the corresponding baculovirus expression vectors (see e.g., Meijer and Kim, “Chemical Inhibitors of Cyclin-Dependent Kinases,” Methods in Enzymol,. vol. 283 (1997), pp. 113–128.). The enzyme complex (5 or 50 nM) was assayed with 0.3–0.5 μg of purified recombinant retinoblastoma protein fragment (Rb) as a substrate. The engineered Rb fragment (residues 386–928 of the native retinoblastoma protein; 62.3 kDa) contains the majority of the phosphorylation sites found in the native 106-kDa protein, as well as a tag of six histidine residues for ease of purification. Phosphorylated Rb substrate was captured by microfiltration on a nitrocellulose membrane and quantified using a phosphorimager as described above. For measurement of tight-binding inhibitors, the enzyme complex concentration was lowered to 5 nM, and the assay duration was extended to 60 minutes, during which the time-dependence of product formation was linear.
# CDK2/cyclin A = molecular target: T1, CDK2/cyclin A (Homo sapiens, UniProt P24941); assay: Inhibition of CDK2/Cyclin A Retinoblastoma Kinase Activity; format: biochemical; conditions: for Ki: apparent Ki; for inhibition at 10 µM: read-out: CDK2/A % inhibition at 10 μM
# T1 construct: made in house; host or cells: CDK2: insect cells (baculovirus); cyclin A: E. coli
# Description: as §1, §2
# Inhibition of CDK2/Cyclin A Retinoblastoma Kinase Activity
# CDK2 was purified using published methodology (Rosenblatt et al., “Purification and Crystallization of Human Cyclin-dependent Kinase 2,” J. Mol. Biol., vol. 230, 1993, pp. 1317–1319) from insect cells that had been infected with a baculovirus expression vector. […] A complex of CDK2 and proteolyzed cyclin A was prepared and purified by gel filtration. The substrate for this assay was the same Rb substrate fragment used for the CDK4 assays, and the methodology of the CDK2/cyclin A and the CDK4/cyclin D3 assays was essentially the same, except that CDK2 was present at 150 nM or 5 nM. Ki values were measured as described above.
# HCT 116 cell line = assay: Inhibition of Cell Growth (MTT tetrazolium salt assay); format: cell-based; conditions: Homo sapiens
# Description: Inhibition of Cell Growth: Assessment of Cytotoxicity
# Inhibition of cell growth was measured using the tetrazolium salt assay, which is based on the ability of viable cells to reduce 3-(4,5-dimethylthiazol-2-yl)-2,5-[2H]-diphenyltetrazolium bromide (MTT) to formazan (Mossman, Journal of Immunological Methods, vol. 65 (1983), pp. 55–58). The water-insoluble purple formazan product was then detected spectrophotometrically. The HCT 116 cell line was grown in 96-well plates. Cells were plated in the appropriate medium at a volume of 135 μl/well in McCoy's 5A Medium. Plates were incubated for four hours before addition of inhibitor compounds. Different concentrations of inhibitor compounds were added in 0.5% (v/v) dimethylsulfoxide (15 μL/well), and cells were incubated at 37° C. (5% CO2) for four to six days (depending on cell type). At the end of the incubation, MTT was added to a final concentration of 0.2 mg/mL, and cells were incubated for 4 hours more at 37° C. After centrifugation of the plates and removal of medium, the absorbance of the formazan (solubilized in dimethylsulfoxide) was measured at 540 nm. The concentration of inhibitor compound causing 50% inhibition of growth was determined from the linear portion of a semi-log plot of inhibitor concentration versus percentage inhibition. All results were compared to control cells treated only with 0.5% (v/v) dimethylsulfoxide.
# [1] = HCT 116, MTT, 50% inhibition of growth, read-out: HCT 116 IC50
# [2] = HCT 116, MTT, IC90, read-out: HCT 116 IC90
SMILES,Ki (CDK4/cyclin D3),Ki (CDK2/cyclin A),other results
"Oc1ccc(-c2ccc3[nH]nc(-c4nc5ccccc5[nH]4)c3c2)cc1 [8′, 4-[3-(1H-Benzoimidazol-2-yl)-1H-indazol-5-yl]-phenol]",590 nM,370 nM,
"O=[N+]([O-])c1ccc2[nH]nc(-c3ccc[nH]3)c2c1 [18b′, 5-Nitro-3-(2-Pyrrolyl)-1H-indazole]",6600 nM,3300 nM,
"C(=C\c1ccc2[nH]nc(/C=C/c3ccccc3)c2c1)/c1ccccc1 [Example 2, 3,5-Distyryl-1H-Indazole]",7900 nM,,
"COc1ccc(-c2ccc3[nH]nc(-c4nc5ccccc5[nH]4)c3c2)cc1 [Example 7′, 3-(1H-Benzoimidazol-2-yl)-5-(4-methoxyphenyl)-1H-indazole]",1200 nM,790 nM,
"COc1cccc(-c2ccc3[nH]nc(-c4nc5ccccc5[nH]4)c3c2)c1C [Example 9′, 3-(1H-Benzoimidazol-2-yl)-5-(3-methoxy-2-methyl-phenyl)-1H-indazole]",2200 nM,670 nM,
"Cc1ccccc1-c1ccc2[nH]nc(-c3ccccc3)c2c1 [Example 11, 5-(2-Methylphenyl)-3-phenyl-1H-indazole]",,2600 nM,inhibition at 10 µM (CDK4/cyclin D3): 39%
"FC(F)(F)c1ccccc1-c1ccc2[nH]nc(-c3ccccc3)c2c1 [Example 12, 3-Phenyl-5-[2-(trifluormethyl)phenyl]-1H-indazole]",,6300 nM,CDK4/D % inhibition at 5 μM (CDK4/cyclin D3; at 5 μM): 19%
"Cc1cc(O)ccc1-c1ccc2[nH]nc(-c3ccccc3)c2c1 [Example 13, 5-(4-Hydroxy-2-methylphenyl)-3-phenyl-1H-indazole]",3400 nM,2700 nM,
"c1ccc(-c2n[nH]c3ccc(-c4ccncc4)cc23)cc1 [Example 14, 3-Phenyl-5-(Pyrid-4-yl)-1H-indazole]",2400 nM,2500 nM,
"c1ccc(-c2n[nH]c3ccc(-c4cccnc4)cc23)cc1 [Example 14b, 3-Phenyl-5-(pyrid-3-yl)-1H-indazole]",,,inhibition at 1 µM (CDK4/cyclin D3; read-out: CDK4/D % inhibition at 1 μM): 20%
"c1c[nH]c(-c2n[nH]c3ccc(-c4ccncc4)cc23)c1 [Example 18, 5-(4Pyridyl)-3-(2-Pyrrolyl)-1H-indazole]",960 nM,,
"Cc1c(-c2ccc3[nH]nc(-c4nc5ccccc5[nH]4)c3c2)ccc(CCCO)c1O [Example 26, 3-[3-(1H-Benzoimidazol-2-yl)-1H-indazol-5-yl]-6-(3-hydroxy-propyl)-2-methyl-phenol]",83 nM,72 nM,IC50 (HCT 116 cell line; [1]): 2.8 µM; IC90 (HCT 116 cell line; [2]): 5 µM
"CC(C)(C)NCc1cccc2[nH]c(-c3n[nH]c4ccc(-c5cncc6ccccc56)cc34)nc12 [Example 39, tert-Butyl-[2-(5-isoquinolin-4-yl-1H-indazol-3-yl)-1H-benzoimidazol-4-ylmethyl]-amine]",9 nM,1.1 nM,IC50 (HCT 116 cell line; [1]): 0.018 µM; IC90 (HCT 116 cell line; [2]): 0.06 µM
"c1ccc2c(-c3ccc4[nH]nc(-c5nc6c(Cn7ccnc7)cccc6[nH]5)c4c3)cncc2c1 [Example 40, 4-[3-(4-Imidazol-1-ylmethyl-1H-benzoimidazol-2-yl)-1H-indazol-5-yl]-isoquinoline]",2.2 nM,0.38 nM,
"Cc1cnccc1-c1ccc2[nH]nc(/C=C/c3ccccc3)c2c1 [Example 41, 5-(3-Methyl-pyridin-4-yl)-3-(E)-styryl-1H-indazole]",78 nM,250 nM,
Oc1cc(F)cc(F)c1-c1ccc2[nH]nc(-c3nc4ccccc4[nH]3)c2c1 [Example 51],1100 nM,400 nM,
c1ccc(CNc2cccc3c(-c4ccc5[nH]nc(-c6nc7ccccc7[nH]6)c5c4)cncc23)cc1 [Example 57],650 nM,37 nM,"IC50 (HCT 116 cell line; HCT-116, read-out: HCT 116 IC50 (uM)): 2 µM; IC90 (HCT 116 cell line; HCT-116, read-out: HCT 116 IC90 (uM)): 5 µM"
"Fc1cccc(F)c1-c1ccc2[nH]nc(-c3ccccc3)c2c1 [Example 83, 5-(2,6-Difluorophenyl)-3-Phenyl-1H-indazole]",,,inhibition at 10 µM (CDK4/cyclin D3): 30%; inhibition at 10 µM (CDK2/cyclin A): 30%
"COc1cccc(-c2ccc3[nH]nc(-c4ccccc4)c3c2)c1 [Example 86, 5-(3-Methoxyphenyl)-3-(phenyl)-1H-indazole]",,,inhibition at 10 µM (CDK4/cyclin D3): 18%; inhibition at 10 µM (CDK2/cyclin A): 45%

# More lines, main results first:
Ki (CDK4/cyclin D3),Ki (CDK2/cyclin A),SMILES,other results
36 nM,1 nM,"CC(=O)Nc1cccc2c(-c3ccc4[nH]nc(-c5nc6ccccc6[nH]5)c4c3)cncc12 [Example 56, N-{4-[3-(1H-Benzoimidazol-2-yl)1H-indazol-5-yl]-isoquinolin-8-yl}-acetamide]",IC50 (HCT 116 cell line; [1]): 0.48 µM; IC90 (HCT 116 cell line; [2]): 1.3 µM
50 nM,3.7 nM,Cc1c(-c2ccc3[nH]nc(-c4nc5ccccc5[nH]4)c3c2)cncc1-c1ccccn1 [Example 62],IC50 (HCT 116 cell line; [1]): 1 µM; IC90 (HCT 116 cell line; [2]): 2.4 µM
220 nM,1.2 nM,"CC(=O)N1CCCc2c(-c3ccc4[nH]nc(-c5nc6ccccc6[nH]5)c4c3)cncc21 [Example 63, 1-{5-[3-(1H-Benzoimidazol-2yl)-1H-indazol-5-yl]-3,4-dihydro-2H-[1,7]naphthyridin-1-yl}-ethanone]",IC50 (HCT 116 cell line; [1]): 0.43 µM; IC90 (HCT 116 cell line; [2]): 1.3 µM
190 nM,14 nM,"Cc1c(C(N)=O)cncc1-c1ccc2[nH]nc(-c3nc4ccccc4[nH]3)c2c1 [Example 64, 5-[3-(1H-Benzoimidazol-2-yl)-1H-indazol-5-yl]-4-methyl-nicotinamide]",IC50 (HCT 116 cell line; [1]): 1.3 µM; IC90 (HCT 116 cell line; [2]): 5 µM
14 nM,,"CCNCc1cncc(-c2ccc3[nH]nc(-c4nc5c(C(=O)NC)cccc5[nH]4)c3c2)c1C [Example 80, 2-[5-(5-Ethylaminomethyl-4-methyl-pyridin-3-yl)-1H-indazol-3-yl]-1H benzoimidazole-4carboxylic acid methylamide]",IC90 (HCT 116 cell line; [2]): 0.22 µM
110 nM,,"CCNCc1cncc(-c2ccc3[nH]nc(-c4nc5c(NC(C)=O)cccc5[nH]4)c3c2)c1C [Example 82, N-2-[5-(5-Ethylaminomethyl-4-methyl-pyridin-3-yl)-1H-indazol-3-yl-1 benzoimidazol-4-yl]-acetamide]",IC90 (HCT 116 cell line; [2]): > 0.5 µM
16000 nM,6600 nM,"c1ccc(CNc2ccc3[nH]nc(-c4ccc[nH]4)c3c2)cc1 [Example 85, 5-(Benzylamino)-3-(2-Pyrrolyl)-1H-indazole]",
,13000 nM,"O=[N+]([O-])c1ccc2[nH]nc(-c3ccccc3)c2c1 [Intermediate 11a, 5-Nitro-3-phenyl-1H-indazole]",inhibition at 100 µM (CDK4/cyclin D3; read-out: CDK4/D % inhibition at 100 μM): 48%
